Measured values taken from US9169254B2, “Spiroimidazolone derivative” (Chugai Seiyaku Kabushiki Kaisha, priority 2009, dated 2015).
Counter-ions that a name gives are not always drawn.

The compounds below were run against T1, human PTH1 receptor (Homo sapiens, UniProt Q03431) (assay: In vitro cAMP signal activity in HKRK-B7 cells (LLC-PK1 cells overexpressing the human PTH1 receptor)). Settings: HKRK-B7 cells; compound at 1×10^−3 M; cAMP produced as percentage of that produced by hPTH(1-34) at 100 nM.
T1 sequence (Q03431 27-593): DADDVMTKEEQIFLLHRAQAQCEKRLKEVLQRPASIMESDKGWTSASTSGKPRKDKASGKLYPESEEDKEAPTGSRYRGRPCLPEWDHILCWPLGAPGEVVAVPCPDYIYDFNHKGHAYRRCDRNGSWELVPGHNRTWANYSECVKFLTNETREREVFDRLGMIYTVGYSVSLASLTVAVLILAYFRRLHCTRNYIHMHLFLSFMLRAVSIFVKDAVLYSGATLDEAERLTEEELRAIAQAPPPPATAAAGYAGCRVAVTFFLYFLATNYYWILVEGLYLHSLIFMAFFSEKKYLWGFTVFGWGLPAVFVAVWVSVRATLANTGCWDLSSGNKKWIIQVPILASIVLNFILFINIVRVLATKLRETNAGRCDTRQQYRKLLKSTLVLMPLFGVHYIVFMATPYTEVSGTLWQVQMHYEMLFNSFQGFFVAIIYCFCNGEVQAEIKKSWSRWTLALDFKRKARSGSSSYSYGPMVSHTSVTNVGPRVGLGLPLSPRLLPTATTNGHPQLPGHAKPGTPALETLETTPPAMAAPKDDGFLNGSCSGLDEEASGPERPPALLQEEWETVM
Assay type: cell-based

Going from Cc1cc(N(CCO)C(=O)C(C)C)ccc1/C=C/S(=O)(=O)N1CCC2(CC1)N=C(c1cccc(OC(F)(F)F)c1)NC2=O [Compound 711, N-(2-Hydroxy-ethyl)-N-(3-methyl-4-{(E)-2-[4-oxo-2-(3-trifluoromethoxy-phenyl)-1,3,8-triaza-spiro[4.5]dec-1-ene-8-sulfonyl]-vinyl}-phenyl)-isobutylamide] to Cc1cc(N(CCO)C(=O)NCCO)cc(C)c1/C=C/S(=O)(=O)N1CCC2(CC1)N=C(c1cccc(OC(F)(F)F)c1)NC2=O [Compound 532, 1-(3,5-dimethyl-4-{(E)-2-[4-oxo-2-(3-trifluoromethoxy-phenyl)-1,3,8-triaza-spiro[4.5]dec-1-ene-8-sulfonyl]-vinyl}-phenyl)-1,3-bis-(2-hydroxy-ethyl)-urea], the “cAMP production activity (%)” value rises from 64% to 80%.

First: CNC1CCN(C(=O)c2ccc(CCS(=O)(=O)N3CCC4(CC3)N=C(c3cccc(C(F)(F)F)c3)NC4=O)c(C)c2)C1 (stereo not drawn) [Compound 444, 8-{2-[2-Methyl-4-(3-methylamino-pyrrolidine-1-carbonyl)-phenyl]-ethanesulfonyl}-2-(3-trifluoromethyl-phenyl)-1,3,8-triaza-spiro[4.5]dec-1-en-4-one]
Second: Cc1cc(C(=O)N2CCC(O)CC2)ccc1CCS(=O)(=O)N1CCC2(CC1)N=C(c1cccc(OC(F)(F)F)c1)NC2=O [Compound 285, 8-{2-[4-(4-hydroxy-piperidine-1-carbonyl)-2-methyl-phenyl]-ethanesulfonyl}-2-(3-trifluoromethoxy-phenyl)-1,3,8-triaza-spiro[4.5]dec-1-en-4-one]
The “cAMP production activity (%)” value of the first is lower: 46% for the first, 65% for the second.

First: O=C1NC(C2CCCCC2)=NC12CCN(S(=O)(=O)CCc1cccc3c1CCCN3)CC2 [Compound 645, 2-Cyclohexyl-8-[2-(1,2,3,4-tetrahydro-quinolin-5-yl)-ethanesulfonyl]-1,3,8-triaza-spiro[4.5]dec-1-en-4-one]
Second: CS(=O)(=O)n1ccc2c(CCS(=O)(=O)N3CCC4(CC3)N=C(C3CCCCC3)NC4=O)cccc21 [Compound 312, 2-cyclohexyl-8-[2-(1-methanesulfonyl-1H-indol-4-yl)-ethanesulfonyl]-1,3,8-triaza-spiro[4.5]dec-1-en-4-one]
The “cAMP production activity (%)” value of the first is higher: 55% for the first, 49% for the second.

Compared with Cc1cc(NCC2CNC(=O)O2)ccc1/C=C/S(=O)(=O)N1CCC2(CC1)N=C(C1CCCCC1)NC2=O (stereo not drawn) [Compound 207, 2-cyclohexyl-8-((E)-2-{2-methyl-4-[(2-oxo-oxazolidin-5-ylmethyl)-amino]-phenyl}-ethenesulfonyl)-1,3,8-triaza-spiro[4.5]dec-1-en-4-one], CC(=O)N(c1ccc(/C=C/S(=O)(=O)N2CCC3(CC2)N=C(C2CCCCC2)NC3=O)c(C)c1)C1CCCC1 [Compound 734, N-{4-[(E)-2-(2-Cyclohexyl-4-oxo-1,3,8-triaza-spiro[4.5]dec-1-ene-8-sulfonyl)-vinyl]-3-methyl-phenyl}-N-cyclopentyl-acetamide trifluoroacetate] is higher in “cAMP production activity (%)” value: 36% for the first, 47% for the second.

Going from CCCCCCCCCC1=NC2(CCN(S(=O)(=O)CCc3c(C)cc(C(=O)N4CCN(C)CC4)cc3C)CC2)C(=O)N1 [Compound 986, 8-{2-[2,6-dimethyl-4-(4-methyl-piperazine-1-carbonyl)-phenyl]-ethanesulfonyl}-2-nonyl-1,3,8-triaza-spiro[4.5]dec-1-en-4-one] to CCOC(=O)CCCCCCCCCCCC1=NC2(CCN(S(=O)(=O)CCc3c(C)cc(N(C)C(N)=O)cc3C)CC2)C(=O)N1 [Compound 1347, 12-(8-{2-[2,6-dimethyl-4-(1-methyl-ureido)-phenyl]-ethanesulfonyl}-4-oxo-1,3,8-triaza-spiro[4.5]dec-1-en-2-yl)-dodecanoic acid ethyl ester], the “cAMP production activity (%)” value falls from 96% to 87%.

First: CNCc1cc(C)c(/C=C/S(=O)(=O)N2CCC3(CC2)N=C(C2CCC(CCC(F)(F)F)CC2)NC3=O)c(C)c1 (stereo not drawn) [Compound 1292, 8-[(E)-2-(2,6-dimethyl-4-methylaminomethyl-phenyl)-ethenesulfonyl]-2-[4-(3,3,3-trifluoro-propyl)-cyclohexyl]-1,3,8-triaza-spiro[4.5]dec-1-en-4-one]
Second: CC(=O)N(c1cc(C)c(/C=C/S(=O)(=O)N2CCC3(CC2)N=C(c2cccc(OC(F)(F)F)c2)NC3=O)c(C)c1)C1CCOCC1 [Compound 616, N-(3,5-dimethyl-4-{(E)-2-[4-oxo-2-(3-trifluoromethoxy-phenyl)-1,3,8-triaza-spiro[4.5]dec-1-ene-8-sulfonyl]-vinyl}-phenyl)-N-(tetrahydro-pyran-4-yl)-acetamide]
The “cAMP production activity (%)” value of the first is lower: 14% for the first, 94% for the second.

Going from Cc1cc(C(=O)N2CC[C@H](O)C2)cc(C)c1/C=C/S(=O)(=O)N1CCC2(CC1)N=C(c1cccc(OC(F)(F)F)c1)NC2=O [Compound 402, 8-{(E)-2-[4-((S)-3-hydroxy-pyrrolidine-1-carbonyl)-2,6-dimethyl-phenyl]-ethenesulfonyl}-2-(3-trifluoromethoxy-phenyl)-1,3,8-triaza-spiro[4.5]dec-1-en-4-one] to Cc1cc(C(=O)N(C)CC(=O)O)cc(C)c1/C=C/S(=O)(=O)N1CCC2(CC1)N=C(c1cccc(C(F)(F)F)c1)NC2=O [Compound 452, [(3,5-Dimethyl-4-{(E)-2-[4-oxo-2-(3-trifluoromethyl-phenyl)-1,3,8-triaza-spiro[4.5]dec-1-ene-8-sulfonyl]-vinyl}-benzoyl)-methyl-amino]-acetic acid], the “cAMP production activity (%)” value falls from 85% to 58%.

First: COC(=O)NCCc1ccc(/C=C/S(=O)(=O)N2CCC3(CC2)N=C(C2CCCCC2)NC3=O)cc1 [Compound 566, (2-{4-[(E)-2-(2-cyclohexyl-4-oxo-1,3,8-triaza-spiro[4.5]dec-1-ene-8-sulfonyl)-vinyl]-phenyl}-ethyl)-carbamic acid methyl ester]
Second: COc1ccc(C2=NC3(CCN(S(=O)(=O)/C=C/c4c(C)cc(C(=O)N5CCC(C)(O)CC5)cc4C)CC3)C(=O)N2)cc1C [Compound 1238, 8-{(E)-2-[4-(4-hydroxy-4-methyl-piperidine-1-carbonyl)-2,6-dimethyl-phenyl]-ethenesulfonyl}-2-(4-methoxy-3-methyl-phenyl)-1,3,8-triaza-spiro[4.5]dec-1-en-4-one]
The “cAMP production activity (%)” value of the first is lower: 19% for the first, 73% for the second.

Compared with Cc1cc(OC[C@H](O)CO)cc(C)c1/C=C/S(=O)(=O)N1CCC2(CC1)N=C(c1cccc(C(F)(F)F)c1F)NC2=O [Compound 243, 8-{(E)-2-[4-((R)-2,3-dihydroxy-propoxy)-2,6-dimethyl-phenyl]-ethenesulfonyl}-2-(2-fluoro-3-trifluoromethyl-phenyl)-1,3,8-triaza-spiro[4.5]dec-1-en-4-one], Cc1cc(C(=O)N2CCC(O)(CF)CC2)cc(C)c1/C=C/S(=O)(=O)N1CCC2(CC1)N=C(c1ccc(OC(F)(F)F)c(OCCCC(F)(F)F)c1)NC2=O [Compound 1273, 8-{(E)-2-[4-(4-fluoromethyl-4-hydroxy-piperidine-1-carbonyl)-2,6-dimethyl-phenyl]-ethenesulfonyl}-2-[3-(4,4,4-trifluoro-butoxy)-4-trifluoromethoxy-phenyl]-1,3,8-triaza-spiro[4.5]dec-1-en-4-one] is higher in “cAMP production activity (%)” value: 80% for the first, 81% for the second.

Going from Cc1cc(S(=O)(=O)NCC(=O)N(C)C)ccc1/C=C/S(=O)(=O)N1CCC2(CC1)N=C(c1cccc(C(F)(F)F)c1)NC2=O [Compound 590, N,N-Dimethyl-2-(3-methyl-4-{(E)-2-[4-oxo-2-(3-trifluoromethyl-phenyl)-1,3,8-triaza-spiro[4.5]dec-1-ene-8-sulfonyl]-vinyl}-benzenesulfonylamino)-acetamide] to Cc1cc(S(=O)(=O)Nc2ccncc2)ccc1CCS(=O)(=O)N1CCC2(CC1)N=C(c1cccc(OC(F)(F)F)c1)NC2=O [Compound 846, 3-methyl-4-{2-[4-oxo-2-(3-trifluoromethoxy-phenyl)-1,3,8-triaza-spiro[4.5]dec-1-ene-8-sulfonyl]-ethyl}-N-pyridin-4-yl-benzenesulfonamide], the “cAMP production activity (%)” value falls from 70% to 47%.

First: Cc1cc(C(=O)N(C)C)ccc1CCS(=O)(=O)N1CCC2(CC1)N=C(c1ccccc1OC(F)(F)F)NC2=O [Compound 105, 3,N,N-trimethyl-4-{2-[4-oxo-2-(2-trifluoromethoxy-phenyl)-1,3,8-triaza-spiro[4.5]dec-1-ene-8-sulfonyl]-ethyl}-benzamide]
Second: CCCCCCCCCC1=NC2(CCN(S(=O)(=O)/C=C/c3c(C)cc(N(C)C(N)=O)cc3C)CC2)C(=O)N1 [Compound 692, 1-{3,5-Dimethyl-4-[(E)-2-(2-nonyl-4-oxo-1,3,8-triaza-spiro[4.5]dec-1-ene-8-sulfonyl)-vinyl]-phenyl}-1-methyl-urea]
The “cAMP production activity (%)” value of the first is lower: 78% for the first, 101% for the second.

First: Cc1cc2ccc1CCS(=O)(=O)N1CCC3(CC1)N=C(NC3=O)c1cc(cc(C(F)(F)F)c1)OCCOCCNC(=O)CN(C)C2=O [Compound 1440]
Second: Cc1cc2ccc1CCS(=O)(=O)N1CCC3(CC1)N=C(NC3=O)c1cc(cc(C(F)(F)F)c1)OCCCCCCCN(C)C2=O [Compound 1407]
The “cAMP production activity (%)” value of the first is higher: 10% for the first, 6.6% for the second.
